# Assay results: ChEMBL document CHEMBL4765365, “Design, synthesis and antitumour evaluation of pyrrolo[1,2-f]-phenanthridine and dibenzo[f,h]pyrrolo[1,2-b]isoquinoline derivatives” (Eur J Med Chem, 2020)
# Experiments:
# HCT-116 [1] = assay: Induction of cell cycle arrest in human HCT-116 cells assessed as S phase at 1.5 uM incubated for 12 hrs by PI staining based flow cytometry analysis (reference value: 15.5 +/- 0.2 %); format: functional
# HCT-116 [2] = assay: Induction of cell cycle arrest in human HCT-116 cells assessed as G0 phase at 0.75 uM incubated for 24 hrs by PI staining based flow cytometry analysis (reference value: 12.5 +/- 5.4 %); format: functional
# [3] = Solubility in mixture of ethanol/PEG400/Cremophor EL/0.9% saline; format: physicochemical; details: buffer
# HCT-116 [4] = assay: Induction of cell cycle arrest in human HCT-116 cells assessed as G1 phase at 0.375 uM incubated for 12 hrs by PI staining based flow cytometry analysis (reference value: 53.6 +/- 4.5 %); format: functional
# NCI-H460 [5] = assay: Induction of apoptosis in human NCI-H460 cells assessed as late apoptotic cells at 1.5 uM incubated for 48 hrs by annexin V-FITC and PI staining based flow cytometry analysis (reference value: 7.3 %); format: functional
# NCI-H460 [6] = assay: Induction of cell cycle arrest in human NCI-H460 cells assessed as G2/M phase at 3 uM incubated for 12 hrs by PI staining based flow cytometry analysis (reference value: 22.9 +/- 6.8 %); format: functional
# NCI-H460 [7] = assay: Induction of cell cycle arrest in human NCI-H460 cells assessed as G0 phase at 3 uM incubated for 12 hrs by PI staining based flow cytometry analysis (reference value: 2.9 +/- 2.4 %); format: functional
# NCI-H460 [8] = assay: Induction of cell cycle arrest in human NCI-H460 cells assessed as G2/M phase at 1.5 uM measured at 0 hrs by PI staining based flow cytometry analysis (reference value: 25.2 +/- 4 %); format: functional
# HCT-116 [9] = assay: Induction of cell cycle arrest in human HCT-116 cells assessed as S phase at 1.5 uM incubated for 24 hrs by PI staining based flow cytometry analysis (reference value: 21.2 +/- 5.4 %); format: functional
# NCI-H460 [10] = assay: Induction of cell cycle arrest in human NCI-H460 cells assessed as S phase at 3 uM measured at 0 hrs by PI staining based flow cytometry analysis (reference value: 12.2 +/- 2.8 %); format: functional
# NCI-H460 [11] = assay: Induction of apoptosis in human NCI-H460 cells assessed as late apoptotic cells at 3 uM incubated for 48 hrs by annexin V-FITC and PI staining based flow cytometry analysis (reference value: 7.3 %); format: functional
# NCI-H460 [12] = assay: Induction of cell cycle arrest in human NCI-H460 cells assessed as G2/M phase at 1.5 uM incubated for 24 hrs by PI staining based flow cytometry analysis (reference value: 21 +/- 6.7 %); format: functional
# HCT-116 [13] = assay: Induction of cell cycle arrest in human HCT-116 cells assessed as G0 phase at 0.375 uM incubated for 12 hrs by PI staining based flow cytometry analysis (reference value: 2.2 +/- 1.7 %); format: functional
# HCT-116 [14] = assay: Induction of cell cycle arrest in human HCT-116 cells assessed as S phase at 0.75 uM incubated for 24 hrs by PI staining based flow cytometry analysis (reference value: 21.2 +/- 5.4 %); format: functional
# NCI-H460 [15] = assay: Induction of cell cycle arrest in human NCI-H460 cells assessed as S phase at 1.5 uM incubated for 24 hrs by PI staining based flow cytometry analysis (reference value: 11.7 +/- 6.1 %); format: functional
# NCI-H460 [16] = assay: Induction of cell cycle arrest in human NCI-H460 cells assessed as G1 phase at 0.75 uM measured at 0 hrs by PI staining based flow cytometry analysis (reference value: 53.4 +/- 4.8 %); format: functional
# HCT-116 [17] = assay: Induction of cell cycle arrest in human HCT-116 cells assessed as G2/M phase at 0.375 uM measured at 0 hrs by PI staining based flow cytometry analysis (reference value: 28.9 +/- 1.4 %); format: functional
# NCI-H460 [18] = assay: Induction of cell cycle arrest in human NCI-H460 cells assessed as G1 phase at 1.5 uM incubated for 36 hrs by PI staining based flow cytometry analysis (reference value: 57.9 +/- 3.6 %); format: functional
# NCI-H460 [19] = assay: Induction of apoptosis in human NCI-H460 cells assessed as viable cells at 6 uM incubated for 48 hrs by annexin V-FITC and PI staining based flow cytometry analysis (reference value: 90.1 %); format: functional; details: read-out: Activity
# NCI-H460 [20] = assay: Induction of cell cycle arrest in human NCI-H460 cells assessed as G2/M phase at 0.75 uM incubated for 12 hrs by PI staining based flow cytometry analysis (reference value: 22.9 +/- 6.8 %); format: functional
# NCI-H460 [21] = assay: Induction of cell cycle arrest in human NCI-H460 cells assessed as S phase at 3 uM incubated for 36 hrs by PI staining based flow cytometry analysis (reference value: 7.6 +/- 3.9 %); format: functional
# NCI-H460 [22] = assay: Induction of cell cycle arrest in human NCI-H460 cells assessed as G1 phase at 1.5 uM incubated for 12 hrs by PI staining based flow cytometry analysis (reference value: 66 +/- 10 %); format: functional
# NCI-H460 [23] = assay: Induction of cell cycle arrest in human NCI-H460 cells assessed as G2/M phase at 0.75 uM measured at 0 hrs by PI staining based flow cytometry analysis (reference value: 25.2 +/- 4 %); format: functional
# NCI-H460 [24] = assay: Induction of apoptosis in human NCI-H460 cells assessed as necrotic cells at 3 uM incubated for 48 hrs by annexin V-FITC and PI staining based flow cytometry analysis (reference value: 0.7 %); format: functional
# NCI-H460 [25] = assay: Induction of cell cycle arrest in human NCI-H460 cells assessed as G2/M phase at 3 uM measured at 0 hrs by PI staining based flow cytometry analysis (reference value: 25.2 +/- 4 %); format: functional
# HCT-116 [26] = assay: Induction of cell cycle arrest in human HCT-116 cells assessed as G2/M phase at 0.75 uM incubated for 36 hrs by PI staining based flow cytometry analysis (reference value: 23.6 +/- 1 %); format: functional
# HCT-116 [27] = assay: Induction of cell cycle arrest in human HCT-116 cells assessed as G1 phase at 1.5 uM measured at 0 hrs by PI staining based flow cytometry analysis (reference value: 52 +/- 5.1 %); format: functional
# HCT-116 [28] = assay: Induction of cell cycle arrest in human HCT-116 cells assessed as G0 phase at 1.5 uM incubated for 36 hrs by PI staining based flow cytometry analysis (reference value: 2.5 +/- 0.8 %); format: functional
# NCI-H460 [29] = assay: Induction of cell cycle arrest in human NCI-H460 cells assessed as S phase at 3 uM incubated for 24 hrs by PI staining based flow cytometry analysis (reference value: 11.7 +/- 6.1 %); format: functional
# HCT-116 [30] = assay: Induction of cell cycle arrest in human HCT-116 cells assessed as G1 phase at 0.375 uM measured at 0 hrs by PI staining based flow cytometry analysis (reference value: 52 +/- 5.1 %); format: functional
# NCI-H460 [31] = assay: Induction of cell cycle arrest in human NCI-H460 cells assessed as S phase at 1.5 uM incubated for 36 hrs by PI staining based flow cytometry analysis (reference value: 7.6 +/- 3.9 %); format: functional
# NCI-H460 [32] = assay: Induction of cell cycle arrest in human NCI-H460 cells assessed as G0 phase at 3 uM measured at 0 hrs by PI staining based flow cytometry analysis (reference value: 1.3 +/- 0.9 %); format: functional
smiles,measurement,setting,value
OCc1cn2c3ccccc3c3ccccc3c2c1CO,Activity,HCT-116 [1],19.9%
same,Activity,HCT-116 [2],2.7%
same,solubility,[3],Soluble
same,Activity,HCT-116 [4],51.6%
same,Activity,NCI-H460 [5],13.7%
same,Activity,NCI-H460 [6],22.8%
same,Activity,NCI-H460 [7],2.5%
same,Activity,NCI-H460 [8],23.9%
same,Activity,HCT-116 [9],5.7%
same,Activity,NCI-H460 [10],12.2%
same,Activity,NCI-H460 [11],51.4%
same,Activity,NCI-H460 [12],25.4%
same,Activity,HCT-116 [13],1.8%
same,Activity,HCT-116 [14],8.9%
same,Activity,NCI-H460 [15],8.6%
same,Activity,NCI-H460 [16],54.9%
same,Activity,HCT-116 [17],28.8%
same,Activity,NCI-H460 [18],73.1%
same,viability at 6 µM,NCI-H460 [19],13.4%
same,Activity,NCI-H460 [20],23.7%
same,Activity,NCI-H460 [21],9.6%
same,Activity,NCI-H460 [22],50.7%
same,Activity,NCI-H460 [23],24.2%
same,Activity,NCI-H460 [24],1.6%
same,Activity,NCI-H460 [25],24.6%
same,Activity,HCT-116 [26],17.4%
same,Activity,HCT-116 [27],53.6%
same,Activity,HCT-116 [28],18.2%
same,Activity,NCI-H460 [29],10.9%
same,Activity,HCT-116 [30],52.9%
same,Activity,NCI-H460 [31],3.5%
same,Activity,NCI-H460 [32],1.3%
